The results in this text go back to patent US7662814B2, “4-aminothieno[2,3-d]pyrimidine-6-carbonitrile derivatives as PDE7 inhibitors” (Laboratorios Almirall, S.A., priority 2003, dated 2010).

With `CCN1CCN(c2nc(-c3ccccc3)nc3sc(C#N)c(C)c23)CC1` [Example 1, 4-(4-Ethylpiperazin-1-yl)-5-methyl-2-phenylthieno[2,3-d]pyrimidine-6-carbonitrile], the melting point lay within 178 to 179 °C.
Next, `CCN1CCN(c2nc(-c3ccc(OC)cc3)nc3sc(C#N)c(C)c23)CC1` [Example 2, 4-(4-Ethylpiperazin-1-yl)-2-(4-methoxyphenyl)-5-methylthieno[2,3-d]pyrimidine-6-carbonitrile]: 173 to 175 °C; `Cc1c(C#N)sc2nc(-c3ccccc3)nc(N3CCCCC3)c12` [Example 4, 5-Methyl-2-phenyl-4-piperidin-1-ylthieno[2,3-d]pyrimidine-6-carbonitrile]: 142 to 144 °C; `COc1ccc(-c2nc(N3CCCCC3)c3c(C)c(C#N)sc3n2)cc1` [Example 6, 2-(4-Methoxyphenyl)-5-methyl-4-piperidin-1-ylthieno[2,3-d]pyrimidine-6-carbonitrile]: 202 to 204 °C.
The compound `Cc1c(C#N)sc2nc(-c3ccccc3)nc(N3CCNCC3)c12` [Example 8, 5-Methyl-2-phenyl-4-piperazin-1-ylthieno[2,3-d]pyrimidine-6-carbonitrile] yielded a melting point of 251 to 253 °C.
Next, `COc1ccc(-c2nc(N3CCN(C)CC3)c3c(C)c(C#N)sc3n2)cc1` [Example 9, 2-(4-Methoxyphenyl)-5-methyl-4-(4-methylpiperazin-1-yl)thieno[2,3-d]pyrimidine-6-carbonitrile]: over 250 °C; `CCN(CC)c1nc(-c2ccc(OC)cc2)nc2sc(C#N)c(C)c12` [Example 10, 4-(Diethylamino)-2-(4-methoxyphenyl)-5-methylthieno[2,3-d]pyrimidine-6-carbonitrile]: 154 to 156 °C.
The figure for `COc1ccc(-c2nc(N3CCCC3)c3c(C)c(C#N)sc3n2)cc1` [Example 11, 2-(4-Methoxyphenyl)-5-methyl-4-pyrrolidin-1-ylthieno[2,3-d]pyrimidine-6-carbonitrile] is 176 to 178 °C; for `COc1ccc(-c2nc(N3CCNCC3)c3c(C)c(C#N)sc3n2)cc1` [Example 12, 2-(4-Methoxyphenyl)-5-methyl-4-piperazin-1-ylthieno[2,3-d]pyrimidine-6-carbonitrile] it is 210 to 212 °C.
The figure for `Cc1c(C#N)sc2nc(-c3ccc([N+](=O)[O-])cc3)nc(N3CCNCC3)c12` [Example 13, 5-Methyl-2-(4-nitrophenyl)-4-piperazin-1-ylthieno[2,3-d]pyrimidine-6-carbonitrile] is 250 °C; for `CCCCN(CCCC)c1nc(-c2ccc(OC)cc2)nc2sc(C#N)c(C)c12` [Example 14, 4-(Dibutylamino)-2-(4-methoxyphenyl)-5-methylthieno[2,3-d]pyrimidine-6-carbonitrile] it is 96 to 98 °C.
In turn, `Cc1c(C#N)sc2nc(-c3ccc(Cl)cc3)nc(N3CCN(C)CC3)c12` [Example 15, 2-(4-Chlorophenyl)-5-methyl-4-(4-methylpiperazin-1-yl)thieno[2,3-d]pyrimidine-6-carbonitrile] had a melting point of 209 to 210 °C.
As for `CCN(C)c1nc(-c2ccc(OC)cc2)nc2sc(C#N)c(C)c12` [Example 17, 4-[Ethyl(methyl)amino]-2-(4-methoxyphenyl)-5-methylthieno[2,3-d]pyrimidine-6-carbonitrile], the melting point was 122 to 123 °C.
On to `CCN(CC)c1nc(-c2ccc(OC)c(OC)c2)nc2sc(C#N)c(C)c12` [Example 20, 4-(Diethylamino)-2-(3,4-dimethoxyphenyl)-5-methylthieno[2,3-d]pyrimidine-6-carbonitrile], for which the melting point was 159 to 161 °C.
Next, `COc1ccc(-c2nc(N(C)C)c3c(C)c(C#N)sc3n2)cc1` [Example 21, 4-(Dimethylamino)-2-(4-methoxyphenyl)-5-methylthieno[2,3-d]pyrimidine-6-carbonitrile]: 123 to 125 °C.
